Where no end group is shown, it is not given here.
How the values were obtained:
PI3K[…] = experiment: In vitro kinase assay PI3K[…]; type: biochemical; details: ten times higher concentration than 0.1 μM
Description: (§1) As a specific substrate, the phosphorylation level of GSK-3[…] at Ser-9 was also evaluated. […] The decrease was specific to the AKT phosphorylation site on GSK-3[…] at Ser-9, since a change in the phosphorylation level of GSK-3[…] at Tyr-216 or GSK-3[…] at Tyr-279 was not observed. Moreover, the in vivo reduction of the phosphorylation of AKT substrates was more obvious at the injection site, since a significant change in the phosphorylation of AKT substrates in the frontal cortex or cerebellum between the two hemispheres was not observed. […] To test the specificity/selectivity of ZaTa as the inhibitor of AKT1 versus the other major kinases, a series of in vitro kinase assays was performed at IC50 for AKT1 and at ten times higher concentrations. A panel of the following 32 kinases was first tested in vitro using the active form of each kinase and a specific substrate: AKT2, AKT3, PKA, PKC[…], PKC, PI3K[…], PI3K[…], PI3K, SGK, PAK2, PAK3, SAPK2/p38, Abl, CaMKII, CDK1/cyclinB, CDK5/p35, CK1, CK2, CSK, GSK3[…], GSK3[…], JNK1[…]1, MAPK1, p70S6K, PDGFR[…], PDGFR[…], PDK1, PKG1[…], TrkB, JAK2, JAK3, and Syk. […] However, at ten times higher concentration, ZaTa inhibited AKT2 (63%), PI3K[…] (72%), p70S6K (64%), SGK (73%), PAK3 (83%), JAK3 (79%), TrkB (84%), and Abl (42%). […]

JAK3 = biological target: T1, JAK3 (Homo sapiens, UniProt P52333); experiment: In vitro kinase assay JAK3; type: biochemical; details: ten times higher concentration than 0.1 μM
T1 construct: endogenous in cells
T1 sequence (P52333 1-1124): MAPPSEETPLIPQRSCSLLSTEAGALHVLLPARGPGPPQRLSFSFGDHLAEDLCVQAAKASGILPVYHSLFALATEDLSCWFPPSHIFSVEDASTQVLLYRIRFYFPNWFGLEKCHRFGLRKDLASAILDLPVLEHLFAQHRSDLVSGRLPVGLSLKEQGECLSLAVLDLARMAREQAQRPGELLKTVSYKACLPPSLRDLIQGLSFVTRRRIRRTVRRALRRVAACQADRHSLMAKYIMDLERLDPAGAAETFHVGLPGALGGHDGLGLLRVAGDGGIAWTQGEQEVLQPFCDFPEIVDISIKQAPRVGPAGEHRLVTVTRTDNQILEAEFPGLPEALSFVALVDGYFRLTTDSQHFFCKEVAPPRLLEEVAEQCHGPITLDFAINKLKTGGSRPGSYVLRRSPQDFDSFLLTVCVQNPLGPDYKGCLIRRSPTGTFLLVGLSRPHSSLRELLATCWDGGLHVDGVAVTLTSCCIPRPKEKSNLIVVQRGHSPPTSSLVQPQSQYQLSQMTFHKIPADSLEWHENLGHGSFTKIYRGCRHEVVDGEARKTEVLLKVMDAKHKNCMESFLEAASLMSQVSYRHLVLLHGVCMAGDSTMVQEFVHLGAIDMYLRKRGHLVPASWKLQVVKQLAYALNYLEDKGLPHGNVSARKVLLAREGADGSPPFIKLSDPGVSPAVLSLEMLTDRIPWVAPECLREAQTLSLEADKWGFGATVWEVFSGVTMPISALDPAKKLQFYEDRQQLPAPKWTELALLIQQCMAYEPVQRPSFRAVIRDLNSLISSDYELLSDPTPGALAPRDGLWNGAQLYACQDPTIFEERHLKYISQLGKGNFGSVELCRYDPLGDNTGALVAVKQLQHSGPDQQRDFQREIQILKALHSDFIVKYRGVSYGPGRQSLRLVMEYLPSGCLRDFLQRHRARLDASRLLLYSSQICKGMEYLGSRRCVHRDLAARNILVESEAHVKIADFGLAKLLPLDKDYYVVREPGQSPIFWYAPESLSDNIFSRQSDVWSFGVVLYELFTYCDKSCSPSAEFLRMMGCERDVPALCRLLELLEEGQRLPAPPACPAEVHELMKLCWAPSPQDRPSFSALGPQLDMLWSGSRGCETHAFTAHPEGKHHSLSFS
Description: as §1

AKRVKGRTWTLCGTPEY [ZaTa]
inhibition of PI3K[…] (PI3K[…]): 72%
inhibition of JAK3 (JAK3): 79%
